{"source": "ChEMBL document CHEMBL1201862", "about": "“PubChem BioAssay data set” (2004)", "experiment_in_all_cases": "DTP human tumour cell line panel, 48 h", "key": {"RXF 393": {"test_system": "RXF 393"}, "HL-60": {"test_system": "HL-60"}, "HCC 2998": {"test_system": "HCC 2998"}, "HOP-62": {"test_system": "HOP-62"}, "SN12C": {"test_system": "SN12C"}, "SF-268": {"test_system": "SF-268"}, "T47D": {"test_system": "T47D"}, "NCI/ADR-RES": {"test_system": "NCI/ADR-RES"}, "HCT-116": {"test_system": "HCT-116"}, "OVCAR-8": {"test_system": "OVCAR-8"}, "Malme-3M": {"test_system": "Malme-3M"}, "OVCAR-3": {"test_system": "OVCAR-3"}, "Hs-578T": {"test_system": "Hs-578T"}, "SW-620": {"test_system": "SW-620"}, "SK-MEL-28": {"test_system": "SK-MEL-28"}, "M14": {"test_system": "M14"}, "MDA-MB-435": {"test_system": "MDA-MB-435"}, "K562": {"test_system": "K562"}, "NCI-H522": {"test_system": "NCI-H522"}, "HOP-92": {"test_system": "HOP-92"}}, "note": "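Following 48 hours of exposure in 96-well plates, responses at five concentrations were used to interpolate endpoints linearly. Here, GI50 denotes the concentration required for 50% inhibition of growth.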 Activity calls are given as the source filed them. No stated cut-off is given here; in the data, active = GI50 up to about 1.1 µM and inactive = higher.", "data": [{"smiles": "Cc1ccc(C(=O)Nc2ccc(CP(=O)(O)O)cc2)cc1NC(=O)c1cccc(NC(=O)Nc2cccc(C(=O)Nc3cc(C(=O)Nc4ccc(CP(=O)(O)O)cc4)ccc3C)c2)c1", "values": [{"measurement": "GI50", "setting": "RXF 393", "result": "> 100 µM (inactive)"}, {"measurement": "GI50", "setting": "HL-60", "result": "> 100 µM (inactive)"}, {"measurement": "GI50", "setting": "HCC 2998", "result": "> 100 µM (inactive)"}, {"measurement": "GI50", "setting": "HOP-62", "result": "> 100 µM (inactive)"}, {"measurement": "GI50", "setting": "SN12C", "result": "> 100 µM (inactive)"}, {"measurement": "GI50", "setting": "SF-268", "result": "> 100 µM (inactive)"}, {"measurement": "GI50", "setting": "T47D", "result": "> 100 µM (inactive)"}, {"measurement": "GI50", "setting": "NCI/ADR-RES", "result": "> 100 µM (inactive)"}, {"measurement": "GI50", "setting": "HCT-116", "result": "> 100 µM (inactive)"}, {"measurement": "GI50", "setting": "OVCAR-8", "result": "> 100 µM (inactive)"}, {"measurement": "GI50", "setting": "Malme-3M", "result": "> 100 µM (inactive)"}, {"measurement": "GI50", "setting": "OVCAR-3", "result": "> 100 µM (inactive)"}, {"measurement": "GI50", "setting": "Hs-578T", "result": "> 100 µM (inactive)"}, {"measurement": "GI50", "setting": "SW-620", "result": "> 100 µM (inactive)"}, {"measurement": "GI50", "setting": "SK-MEL-28", "result": "> 100 µM (inactive)"}, {"measurement": "GI50", "setting": "M14", "result": "> 100 µM (inactive)"}, {"measurement": "GI50", "setting": "MDA-MB-435", "result": "> 100 µM (inactive)"}, {"measurement": "GI50", "setting": "K562", "result": "> 100 µM (inactive)"}, {"measurement": "GI50", "setting": "NCI-H522", "result": "> 100 µM (inactive)"}]}, {"smiles": "Cn1c(-c2cccs2)cc(-c2ccsc2)c1-c1cccs1", "values": [{"measurement": "GI50", "setting": "RXF 393", "result": "> 100 µM (inactive)"}, {"measurement": "GI50", "setting": "HCC 2998", "result": "> 100 µM (inactive)"}, {"measurement": "GI50", "setting": "HOP-62", "result": "> 100 µM (inactive)"}, {"measurement": "GI50", "setting": "SN12C", "result": "> 100 µM (inactive)"}, {"measurement": "GI50", "setting": "SF-268", "result": "> 100 µM (inactive)"}, {"measurement": "GI50", "setting": "HOP-92", "result": "> 100 µM (inactive)"}, {"measurement": "GI50", "setting": "T47D", "result": "3.04 µM (inactive)"}, {"measurement": "GI50", "setting": "NCI/ADR-RES", "result": "> 100 µM (inactive)"}, {"measurement": "GI50", "setting": "HCT-116", "result": "16.3 µM (inactive)"}, {"measurement": "GI50", "setting": "OVCAR-8", "result": "> 100 µM (inactive)"}, {"measurement": "GI50", "setting": "Malme-3M", "result": "> 100 µM (inactive)"}, {"measurement": "GI50", "setting": "OVCAR-3", "result": "76.7 µM (inactive)"}, {"measurement": "GI50", "setting": "Hs-578T", "result": "96.4 µM (inactive)"}, {"measurement": "GI50", "setting": "SW-620", "result": "> 100 µM (inactive)"}, {"measurement": "GI50", "setting": "SK-MEL-28", "result": "99.1 µM (inactive)"}, {"measurement": "GI50", "setting": "M14", "result": "92.3 µM (inactive)"}, {"measurement": "GI50", "setting": "MDA-MB-435", "result": "57.4 µM (inactive)"}, {"measurement": "GI50", "setting": "K562", "result": "75.7 µM (inactive)"}, {"measurement": "GI50", "setting": "NCI-H522", "result": "72.8 µM (inactive)"}]}, {"smiles": "Cn1c(S)nc(C(N)=O)c1N", "values": [{"measurement": "GI50", "setting": "RXF 393", "result": "> 100 µM (inactive)"}, {"measurement": "GI50", "setting": "HL-60", "result": "> 100 µM (inactive)"}, {"measurement": "GI50", "setting": "HCC 2998", "result": "> 100 µM (inactive)"}, {"measurement": "GI50", "setting": "HOP-62", "result": "> 100 µM (inactive)"}, {"measurement": "GI50", "setting": "SN12C", "result": "> 100 µM (inactive)"}, {"measurement": "GI50", "setting": "SF-268", "result": "> 100 µM (inactive)"}, {"measurement": "GI50", "setting": "T47D", "result": "72.4 µM (inactive)"}, {"measurement": "GI50", "setting": "NCI/ADR-RES", "result": "> 100 µM (inactive)"}, {"measurement": "GI50", "setting": "OVCAR-8", "result": "> 100 µM (inactive)"}, {"measurement": "GI50", "setting": "Malme-3M", "result": "> 100 µM (inactive)"}, {"measurement": "GI50", "setting": "OVCAR-3", "result": "> 100 µM (inactive)"}, {"measurement": "GI50", "setting": "Hs-578T", "result": "> 100 µM (inactive)"}, {"measurement": "GI50", "setting": "SW-620", "result": "> 100 µM (inactive)"}, {"measurement": "GI50", "setting": "SK-MEL-28", "result": "> 100 µM (inactive)"}, {"measurement": "GI50", "setting": "M14", "result": "> 100 µM (inactive)"}, {"measurement": "GI50", "setting": "MDA-MB-435", "result": "> 100 µM (inactive)"}, {"measurement": "GI50", "setting": "K562", "result": "> 100 µM (inactive)"}, {"measurement": "GI50", "setting": "NCI-H522", "result": "> 100 µM (inactive)"}]}, {"smiles": "C[N+]1(C)CC=C(N2CCOCC2)CC1", "values": [{"measurement": "GI50", "setting": "RXF 393", "result": "> 10 µM (inactive)"}, {"measurement": "GI50", "setting": "HL-60", "result": "> 10 µM (inactive)"}, {"measurement": "GI50", "setting": "HCC 2998", "result": "> 10 µM (inactive)"}, {"measurement": "GI50", "setting": "HOP-62", "result": "> 10 µM (inactive)"}, {"measurement": "GI50", "setting": "SN12C", "result": "> 10 µM (inactive)"}, {"measurement": "GI50", "setting": "SF-268", "result": "> 10 µM (inactive)"}, {"measurement": "GI50", "setting": "T47D", "result": "> 10 µM (inactive)"}, {"measurement": "GI50", "setting": "NCI/ADR-RES", "result": "> 10 µM (inactive)"}, {"measurement": "GI50", "setting": "HCT-116", "result": "> 10 µM (inactive)"}, {"measurement": "GI50", "setting": "OVCAR-8", "result": "> 10 µM (inactive)"}, {"measurement": "GI50", "setting": "Malme-3M", "result": "> 10 µM (inactive)"}, {"measurement": "GI50", "setting": "OVCAR-3", "result": "> 10 µM (inactive)"}, {"measurement": "GI50", "setting": "Hs-578T", "result": "> 10 µM (inactive)"}, {"measurement": "GI50", "setting": "SW-620", "result": "> 10 µM (inactive)"}, {"measurement": "GI50", "setting": "SK-MEL-28", "result": "> 10 µM (inactive)"}, {"measurement": "GI50", "setting": "M14", "result": "> 10 µM (inactive)"}, {"measurement": "GI50", "setting": "MDA-MB-435", "result": "> 10 µM (inactive)"}, {"measurement": "GI50", "setting": "K562", "result": "> 10 µM (inactive)"}, {"measurement": "GI50", "setting": "NCI-H522", "result": "> 10 µM (inactive)"}]}, {"smiles": "CCN1/C(=C/C#C/C(C)=C\\c2sc3ccc(Cl)cc3[n+]2CC)Sc2ccc(Cl)cc21", "values": [{"measurement": "GI50", "setting": "RXF 393", "result": "5.6 µM (inactive)"}, {"measurement": "GI50", "setting": "HCC 2998", "result": "4.07 µM (inactive)"}, {"measurement": "GI50", "setting": "HOP-62", "result": "4.88 µM (inactive)"}, {"measurement": "GI50", "setting": "SN12C", "result": "3.57 µM (inactive)"}, {"measurement": "GI50", "setting": "SF-268", "result": "5.22 µM (inactive)"}, {"measurement": "GI50", "setting": "HOP-92", "result": "1.58 µM (inactive)"}, {"measurement": "GI50", "setting": "T47D", "result": "2.9 µM (inactive)"}, {"measurement": "GI50", "setting": "NCI/ADR-RES", "result": "15.7 µM (inactive)"}, {"measurement": "GI50", "setting": "HCT-116", "result": "2.57 µM (inactive)"}, {"measurement": "GI50", "setting": "OVCAR-8", "result": "3.24 µM (inactive)"}, {"measurement": "GI50", "setting": "Malme-3M", "result": "1.85 µM (inactive)"}, {"measurement": "GI50", "setting": "Hs-578T", "result": "4.72 µM (inactive)"}, {"measurement": "GI50", "setting": "SW-620", "result": "2.43 µM (inactive)"}, {"measurement": "GI50", "setting": "SK-MEL-28", "result": "9.77 µM (inactive)"}, {"measurement": "GI50", "setting": "M14", "result": "3.62 µM (inactive)"}, {"measurement": "GI50", "setting": "MDA-MB-435", "result": "2.94 µM (inactive)"}, {"measurement": "GI50", "setting": "K562", "result": "0.552 µM (active)"}, {"measurement": "GI50", "setting": "NCI-H522", "result": "1.56 µM (inactive)"}]}, {"smiles": "O=[N+]([O-])c1cccc(/C=N/N=c2\\ccc3ccccc3[nH]2)c1O", "values": [{"measurement": "GI50", "setting": "RXF 393", "result": "2.07 µM (inactive)"}, {"measurement": "GI50", "setting": "HL-60", "result": "0.619 µM (active)"}, {"measurement": "GI50", "setting": "HOP-62", "result": "0.815 µM (active)"}, {"measurement": "GI50", "setting": "SN12C", "result": "1.53 µM (inactive)"}, {"measurement": "GI50", "setting": "SF-268", "result": "1.14 µM (inactive)"}, {"measurement": "GI50", "setting": "HOP-92", "result": "7.5 µM (inactive)"}, {"measurement": "GI50", "setting": "T47D", "result": "0.807 µM (active)"}, {"measurement": "GI50", "setting": "NCI/ADR-RES", "result": "0.151 µM (active)"}, {"measurement": "GI50", "setting": "HCT-116", "result": "0.526 µM (active)"}, {"measurement": "GI50", "setting": "OVCAR-8", "result": "2.21 µM (inactive)"}, {"measurement": "GI50", "setting": "Malme-3M", "result": "1.88 µM (inactive)"}, {"measurement": "GI50", "setting": "OVCAR-3", "result": "0.185 µM (active)"}, {"measurement": "GI50", "setting": "Hs-578T", "result": "16.2 µM (inactive)"}, {"measurement": "GI50", "setting": "SW-620", "result": "0.632 µM (active)"}, {"measurement": "GI50", "setting": "SK-MEL-28", "result": "2.79 µM (inactive)"}, {"measurement": "GI50", "setting": "M14", "result": "1.13 µM (inactive)"}, {"measurement": "GI50", "setting": "MDA-MB-435", "result": "2.45 µM (inactive)"}, {"measurement": "GI50", "setting": "K562", "result": "1.35 µM (inactive)"}, {"measurement": "GI50", "setting": "NCI-H522", "result": "1.2 µM (inactive)"}]}]}
